Laboratory results: patent publication US20250332173A1, “COMPOUNDS AND METHODS FOR MODULATING NUCLEIC ACID SPLICING” (REMIX THERAPEUTICS INC., priority 2021, published 2025)
Where two headings read alike, the source gives them in different places.

Experiments:
[1] = system: MYB mRNA; experiment: RT-qPCR splicing assay, MYB canonical junction (CJ) and alternative junction (AJ) mRNA; format: cell-based, human; settings: Homo sapiens; for AC50: increase in MYB alternative junction (AJ) mRNA, read-out: MYB AJ AC50
Procedure, shortened: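 A673 or K562 cells were treated for 24 h at 37 °C with an 11-point 3-fold compound dilution series (top final concentration 10 uM, DMSO ≤0.25%). After lysis, one-step TaqMan RT-qPCR quantified junction transcripts, normalized to PPIA for A673 or to GAPDH/GUSB for K562.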

[2] = system: MYB; experiment: HiBiT protein abundance assay, MYB HiBiT K562 cell line; format: cell-based, human; settings: 24 hours, top dose 10 μM
Procedure, shortened: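 Endogenous targets in K562 knock-in lines carried a HiBiT tag and were treated for 24 h at 37 °C with 10-point 3-fold dilutions (top 10 μM final, DMSO ≤0.25%). Abundance was read as lytic Nano-Glo HiBiT luminescence. IC50 came from a four-parameter logistic fit of normalized response.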

[3] = system: K562 (human chronic myelogenous leukemia) cells; experiment: Cell Titer Glo 2.0 cell viability assay; format: cell-based; settings: Homo sapiens, K562, 72 h, K562 cells, 72 hours, Cell Titer Glo 2.0; read-out: K562 GI50
[4] = Table 5 panel, canonical junction qPCR, compound concentration having 50% response in CJ decrease, read-out: MYB IC50 (decrease in CJ mRNA levels)
[5] = decrease in MYB canonical junction (CJ) mRNA, RT-qPCR, read-out: MYB CJ IC50
[6] = HiBiT K562 cell line, read-out: Effect on protein abundance, MYB (IC50 category)
[7] = canonical junction qPCR panel, Table 5, read-out: MYB (decrease in CJ mRNA levels, IC50)
[8] = HiBiT lytic detection, modified K562 cells, read-out: Effect on protein abundance, MYB (IC50)

## Cc1cn2cc(-c3cc(F)c4c(=O)n(C5CCN(C)CC5)cnc4c3)cc(F)c2n1 [Compound 231, 5-fluoro-7-{8-fluoro-2-methylimidazo[1,2-a]pyridin-6-yl}-3-(1-methylpiperidin-4-yl)quinazolin-4-one]
[1]; [4]
  IC50: 100 to 1000 nM
[1]; [5]
  IC50: 100 to 1000 nM
[1]; RT-qPCR
  AC50: 100 to 1000 nM
[2]; [6]
  IC50: 100 to 1000 nM
[3]
  GI50: 100 to 1000 nM

## Cc1cc(-c2cc(F)c3c(=O)n(C4CCNCC4)cnc3c2)cc2cn(C)nc12 [Compound 232]
[1]; [4]
  IC50: < 100 nM
[1]; [5]
  IC50: < 100 nM
[1]; RT-qPCR
  AC50: < 100 nM
[2]; [6]
  IC50: < 100 nM
[3]
  GI50: 100 to 1000 nM

## Cc1cc(-c2cc(F)c3c(=O)n(C4CCN(C)CC4)cnc3c2)cc2cn(C)nc12 [Compound 233]
[1]; [4]
  IC50: 100 to 1000 nM
[1]; [5]
  IC50: 100 to 1000 nM
[1]; RT-qPCR
  AC50: 100 to 1000 nM
[2]; [6]
  IC50: 100 to 1000 nM
[3]
  GI50: 100 to 1000 nM

## Cc1cc(-c2ccc3c(=O)n(C4CCNCC4)cnc3c2F)cc2cn(C)nc12 [Compound 234]
[1]; [4]
  IC50: 1000 to 10000 nM
[1]; [5]
  IC50: 1000 to 10000 nM
[1]; RT-qPCR
  AC50: 1000 to 10000 nM
[2]; [6]
  IC50: 1000 to 10000 nM
[3]
  GI50: 1000 to 10000 nM

## Cc1cc(-c2ccc3c(=O)n(C4CCN(C)CC4)cnc3c2F)cc2cn(C)nc12 [Compound 235]
[1]; [4]
  IC50: > 10000 nM
[1]; [5]
  IC50: > 10000 nM
[1]; RT-qPCR
  AC50: > 10000 nM
[2]; [6]
  IC50: 1000 to 10000 nM
[3]
  GI50: 1000 to 10000 nM

## Cc1cn2cc(-c3ccc4c(=O)n(C5CCNC6(CC6)C5)cnc4c3)cc(F)c2n1 (stereo not drawn) [Compound 236]
[1]; [4]
  IC50: 100 to 1000 nM
[1]; [5]
  IC50: < 100 nM
[1]; RT-qPCR
  AC50: 100 to 1000 nM
[2]; [6]
  IC50: 100 to 1000 nM
[3]
  GI50: 100 to 1000 nM

## Cc1cn2cc(-c3ccc4c(=O)n(C5CCNC(C)(C)C5)cnc4c3)cc(F)c2n1 (stereo not drawn) [Compound 237]
[1]; [4]
  IC50: 100 to 1000 nM
[1]; [5]
  IC50: 100 to 1000 nM
[1]; RT-qPCR
  AC50: 100 to 1000 nM
[2]; [6]
  IC50: 100 to 1000 nM
[3]
  GI50: 100 to 1000 nM

## Cc1cn2nc(-n3cnc4cc(N5CCNCC5)ccc4c3=O)cc(C)c2n1 [Compound 241]
[1]; [4]
  IC50: 1000 to 10000 nM
[1]; [5]
  IC50: 1000 to 10000 nM
[1]; RT-qPCR
  AC50: 1000 to 10000 nM
[2]; [6]
  IC50: 1000 to 10000 nM
[3]
  GI50: 1000 to 10000 nM

## Cc1cn2nc(-c3cc(F)c4c(=O)n(C5CCN(C)CC5)cnc4c3)cc(C)c2n1 [Compound 242]
[1]; [4]
  IC50: < 100 nM
[1]; [5]
  IC50: < 100 nM
[1]; RT-qPCR
  AC50: < 100 nM
[2]; [6]
  IC50: < 100 nM
[3]
  GI50: 100 to 1000 nM

## Cc1cn2cc(-c3ncc4c(=O)n([C@H]5CCNC6(CC6)C5)ccc4n3)cc(F)c2n1 [Compound 1458, 6-[(7S)-4-azaspiro[2.5]octan-7-yl]-2-(8-fluoro-2-methyl-imidazo[1,2-a]pyridin-6-yl)pyrido[4,3-d]pyrimidin-5-one]
[1]; [7]
  IC50: < 100 nM
[1]; [5]
  IC50: 100 to 1000 nM
[1]; RT-qPCR
  AC50: < 100 nM
[2]; [6]
  IC50: < 100 nM
[3]
  GI50: 100 to 1000 nM

## Cc1c(O)c(-c2ncc3c(=O)n([C@H]4CC[C@H](N(C)C)CC4)ccc3n2)cc2cn(C)nc12 [Compound 1459, 6-((1r,4r)-4-(dimethylamino)cyclohexyl)-2-(6-hydroxy-2,7-dimethyl-2H-indazol-5-yl)pyrido[4,3-d]pyrimidin-5(6H)-one]
[1]; [7]
  IC50: < 100 nM
[1]; [5]
  IC50: 100 to 1000 nM
[1]; RT-qPCR
  AC50: < 100 nM
[2]; [6]
  IC50: < 100 nM
[3]
  GI50: < 100 nM

## Cc1c(O)c(-c2ncc3c(=O)n([C@H]4CC[C@@H](N(C)C)CC4)ccc3n2)cc2cn(C)nc12 [Compound 1460, 6-((1s,4s)-4-(dimethylamino)cyclohexyl)-2-(6-hydroxy-2,7-dimethyl-2H-indazol-5-yl)pyrido[4,3-d]pyrimidin-5(6H)-one]
[1]; [7]
  IC50: 100 to 1000 nM
[1]; [5]
  IC50: 100 to 1000 nM
[1]; RT-qPCR
  AC50: 100 to 1000 nM
[2]; [6]
  IC50: 100 to 1000 nM
[3]
  GI50: 100 to 1000 nM

## Cc1c(O)c(-c2ncc3c(=O)n([C@H]4CCN[C@H](C)C4)ccc3n2)cc2cn(C)nc12 [Compound 1461, 2-(6-hydroxy-2,7-dimethyl-indazol-5-yl)-6-[(2R,4S)-2-methyl-4-piperidyl]pyrido[4,3-d]pyrimidin-5-one]
[1]; [7]
  IC50: < 100 nM
[1]; [5]
  IC50: < 100 nM
[1]; RT-qPCR
  AC50: < 100 nM
[2]; [6]
  IC50: < 100 nM
[3]
  GI50: < 100 nM

## Cc1c(O)c(-c2ncc3c(=O)n([C@@H]4CCN[C@@H](C)C4)ccc3n2)cc2cn(C)nc12 [Compound 1462, 2-(6-hydroxy-2,7-dimethyl-indazol-5-yl)-6-[(2S,4R)-2-methyl-4-piperidyl]pyrido[4,3-d]pyrimidin-5-one]
[1]; [7]
  IC50: < 100 nM
[1]; [5]
  IC50: < 100 nM
[1]; RT-qPCR
  AC50: < 100 nM
[2]; [6]
  IC50: < 100 nM
[3]
  GI50: < 100 nM

## Cc1c(O)c(-c2ccc3c(=O)n([C@@H]4C[C@@H](C)N[C@@H](C)C4)ccc3n2)cc2cn(C)nc12 [Compound 1463, 6-[(2S,6R)-2,6-dimethyl-4-piperidyl]-2-(6-hydroxy-2,7-dimethyl-indazol-5-yl)-1,6-naphthyridin-5-one]
[1]; [7]
  IC50: 100 to 1000 nM
[1]; [5]
  IC50: 100 to 1000 nM
[1]; RT-qPCR
  AC50: 100 to 1000 nM
[2]; [6]
  IC50: 100 to 1000 nM
[3]
  GI50: 100 to 1000 nM

## Cc1c(O)c(-c2ccc3c(=O)n([C@H]4C[C@@H](C)N[C@@H](C)C4)ccc3n2)cc2cn(C)nc12 [Compound 1464, 6-[(2S,6R)-2,6-dimethyl-4-piperidyl]-2-(6-hydroxy-2,7-dimethyl-indazol-5-yl)-1,6-naphthyridin-5-one]
[1]; [7]
  IC50: < 100 nM
[1]; [5]
  IC50: 100 to 1000 nM
[1]; RT-qPCR
  AC50: < 100 nM
[2]; [6]
  IC50: < 100 nM
[3]
  GI50: < 100 nM

## Cn1cc2cc(-c3ncc4c(=O)n([C@H]5CCNC5)ccc4n3)c(O)c(F)c2n1 [Compound 1465]
[1]; [7]
  IC50: 100 to 1000 nM
[1]; [5]
  IC50: 100 to 1000 nM
[1]; RT-qPCR
  AC50: 100 to 1000 nM
[2]; [6]
  IC50: 100 to 1000 nM
[3]
  GI50: 100 to 1000 nM

## Cn1cc2cc(-c3ncc4c(=O)n([C@@H]5CCNC5)ccc4n3)c(O)c(F)c2n1 [Compound 1466]
[1]; [7]
  IC50: 100 to 1000 nM
[1]; [5]
  IC50: 100 to 1000 nM
[1]; RT-qPCR
  AC50: 100 to 1000 nM
[2]; [8]
  IC50: 100 to 1000 nM
[3]
  GI50: 100 to 1000 nM

## Cc1c(O)c(-c2ccc3c(=O)n(C4CCNC4)cc(C)c3n2)cc2cn(C)nc12 (stereo not drawn) [Compound 1467]
[1]; [7]
  IC50: 100 to 1000 nM
[1]; [5]
  IC50: 100 to 1000 nM
[1]; RT-qPCR
  AC50: 100 to 1000 nM
[2]; [8]
  IC50: 100 to 1000 nM
[3]
  GI50: 100 to 1000 nM

## Cn1cc2cc(-c3ncc4c(=O)n(C56CCC(N)(CC5)C6)ccc4n3)c(O)c(F)c2n1 [Compound 1468]
[1]; [7]
  IC50: < 100 nM
[1]; [5]
  IC50: < 100 nM
[1]; RT-qPCR
  AC50: < 100 nM
[2]; [8]
  IC50: < 100 nM
[3]
  GI50: < 100 nM

## Cc1cn2cc(-c3ncc4c(=O)n(C56CCC(N)(CC5)C6)ccc4n3)cc(F)c2n1 [Compound 1469, 6-(4-aminonorbornane-1-yl)-2-(8-fluoro-2-methyl-imidazo[1,2-a]pyridin-6-yl)pyrido[4,3-d]pyrimidin-5-one]
[1]; [7]
  IC50: 100 to 1000 nM
[1]; [5]
  IC50: 100 to 1000 nM
[1]; RT-qPCR
  AC50: 100 to 1000 nM
[2]; [8]
  IC50: 100 to 1000 nM
[3]
  GI50: 100 to 1000 nM

## Cn1cc2cc(-c3ncc4c(=O)n(C56CCC(N)(CC5)C6)ccc4n3)c(O)cc2n1 [Compound 1470]
[1]; [7]
  IC50: 100 to 1000 nM
[1]; [5]
  IC50: 100 to 1000 nM
[1]; RT-qPCR
  AC50: 100 to 1000 nM
[2]; [8]
  IC50: 100 to 1000 nM
[3]
  GI50: 100 to 1000 nM

## Cc1c(O)c(-c2ncc3c(=O)n([C@@H]4C[C@H]5COC[C@@H](C4)N5)ccc3n2)cc2cn(C)nc12 [Compound 1471]
[1]; [7]
  IC50: < 100 nM
[1]; [5]
  IC50: < 100 nM
[1]; RT-qPCR
  AC50: < 100 nM
[2]; [8]
  IC50: 100 to 1000 nM
[3]
  GI50: 100 to 1000 nM

## Cc1c(O)c(-c2ncc3c(=O)n([C@@H]4CC[C@@H](N)C4)ccc3n2)cc2cn(C)nc12 [Compound 1476, 6-[(1R,3R)-3-aminocyclopentyl]-2-(6-hydroxy-2,7-dimethyl-indazol-5-yl)pyrido[4,3-d]pyrimidin-5-one]
[1]; [7]
  IC50: 100 to 1000 nM
[1]; [5]
  IC50: 100 to 1000 nM
[1]; RT-qPCR
  AC50: 100 to 1000 nM
[2]; [8]
  IC50: 100 to 1000 nM
[3]
  GI50: 100 to 1000 nM
